{"source": "patent US12144792B2", "about": "“Therapeutic agents for neurodegenerative diseases” (priority 2016, dated 2024)", "key": {"[1]": {"system": "patient with spinocerebellar ataxia 28 (SCA 28)", "experiment": "Case study, clinical evaluation", "format": "in vivo, human", "conditions": "Ex. 14, SCA 28; 5 g per day; after about one month", "protocol": "A gait analysis was performed before treatment commenced. After about one month of treatment, medication was stopped and the patient was evaluated. […] The patient reported that they no longer walked like a robot and could climb the stairs without using the banisters."}, "[2]": {"system": "Aspartylglucosaminuria patient fibroblasts", "experiment": "Lysosomal volume via LysoTracker", "format": "cell-based, human", "conditions": "1 mM, 6 days, vs untreated"}, "[3]": {"system": "Npc1^−/− (BALB/cNctr-Npc1^m1N) mouse", "experiment": "Coat condition and disease indications by observation", "format": "in vivo", "from_the_text": "Separate groups of Npc1^-/- and Npc1^+/+ mice were left untreated, as controls."}, "[4]": {"system": "patient with frontotemporal dementia with parkinsonism", "experiment": "Case study, clinical examination", "format": "in vivo, human", "from_the_text": "After approximately one month of acetyl-leucine treatment, medication was stopped and the patient was re-examined 13 days later."}, "[5]": {"system": "patients with multiple system atrophy Parkinson type (MSA-P)", "experiment": "Case studies, clinical examination", "format": "in vivo, human", "from_the_text": "Medication was stopped. […] The patient evaluated after one month on acetyl-DL-leucine. […] Episodes of mental confusion completely disappeared. The patient's cognitive structure seemed much clearer and straighter. […] The patient's spouse supported continuing the medication."}, "[6]": {"system": "patients with multisystemic atrophy cerebellar type (MSA-C)", "experiment": "Case studies, clinical examination", "format": "in vivo, human"}, "[7]": {"system": "12 patients with Niemann-Pick Type C (NPC)", "conditions": "one-month study, 12 NPC patients (Bremova et al. 2015); cited from earlier work"}, "[8]": {"system": "patients with ataxia with oculomotor apraxia type 4", "experiment": "Case study, report of the patients'", "format": "in vivo, human", "conditions": "Ex. 18, youngest sibling, AOA4; reported by parent", "from_the_text": "In this case study, four patients (male siblings) suffered from, and were later diagnosed with, ataxia with oculomotor apraxia type 4. The older three siblings […], at the time of disease onset. […] The older siblings began treatment with acetyl-leucine […], respectively, and have been on the treatment for approximately four years. No long-term clinical data is available for these three patients.\nThe youngest sibling was […] at the time of onset. […] No long-term clinical data is available for the youngest sibling."}, "[9]": {"system": "Sandhoff disease patient fibroblasts", "experiment": "Glycosphingolipid (GSL) levels via HPLC", "format": "cell-based, human", "conditions": "1 mM for 6 days"}, "[10]": {"system": "Hexb^−/− mouse (Sandhoff disease model)", "experiment": "Bar crossing test", "format": "in vivo", "from_the_text": "This study made use of a mouse model of Sandhoff disease, the Hexb^−/− mouse, as described in Jeyakumar et al. (Jeyakumar, M. et al. (1999) Proc. Natl. Acad. Sci. USA 96: 6388-6393). The bar crossing test is a method for assessing motor function in mice in which the mouse is placed hanging from the centre of a horizontal bar by its front limbs. A wild-type mouse with normal motor function will be able to engage its hind limbs and thereby move to one of the platforms at either end of the bar, and in doing so complete the test. […] In FIG. 7B, acetyl-leucine treatment of 0.1 g/kg body weight was provided from 3 weeks of age. The acetyl-leucine treated Sandhoff mice retained the ability to complete the test up to 13 weeks of age (inclusive). Data shown is the mean of 6 mice per group. The treated Sandhoff mice retained the ability to complete the test up to 13 weeks of age (inclusive)."}, "Npc1^−/− mice": {"system": "Npc1^−/− mice", "experiment": "Weight data", "format": "in vivo, mouse", "conditions": "0.1 g/kg from weaning, vs untreated group", "from_the_text": "Separate groups of Npc1^−/− and Npc1^+/+ mice were left untreated, as controls. Animals were weighed twice a week. Weights were averaged (mean) across all mice in each group and compared."}, "[11]": {"system": "Hexb^−/− mouse (Sandhoff disease model)", "experiment": "Lifespan of Sandhoff mouse", "format": "in vivo", "conditions": "0.1 g/kg from 3 weeks of age, p<0.05 vs untreated", "protocol": "This study made use of a mouse model of Sandhoff disease, the Hexb^−/− mouse, as described in Jeyakumar et al. (Jeyakumar, M. et al. (1999) Proc. Natl. Acad. Sci. USA 96: 6388-6393).\nIn FIG. 7A, acetyl-leucine-treated mice were treated with 0.1 g/kg acetyl-leucine from 3 weeks of age. The asterisks (*) indicates a p-value of <0.05 vs untreated Sandhoff mice. Data is average of n=6 mice per group. Without treatment, the median survival time of Sandhoff mice was 112 days. Treatment with acetyl-leucine (0.1 g/kg body weight since 3 weeks of age) increased the median lifespan to 120 days."}, "patients with ataxia": {"system": "patients with ataxia", "conditions": "patients with ataxia (Becker-Bense et al. 2015); cited from earlier work"}, "[12]": {"system": "patient with Spinocerebellar Ataxia (SCA) 1", "experiment": "Case study, clinical examination", "format": "in vivo, human", "conditions": "Ex. 16, SCA 1", "from_the_text": "Three months later the medication was stopped."}, "Npc1^−/− mouse": {"system": "Npc1^−/− mouse", "experiment": "Lifespan", "format": "in vivo", "conditions": "0.1 g/kg from 3 weeks of age", "from_the_text": "Separate groups of Npc1^−/− and Npc1^+/+ mice were left untreated, as controls."}, "[13]": {"system": "patient with corticobasal syndrome", "experiment": "Case study, clinical examination", "format": "in vivo, human", "protocol": "Gait analysis was performed before treatment commenced. After 20 days of acetyl-leucine treatment, the patient was re-examined. […] After 8 weeks of acetyl-leucine treatment, medication was stopped and the patient was re-examined 6 days later."}}, "data": [{"smiles": "CC(=O)NC(CC(C)C)C(=O)O", "note": "(racemic) [acetyl-DL-leucine]", "values": [{"measurement": "symptomatology", "setting": "[1]", "value": "reduced dizziness (almost vanished), and a more stable gait"}, {"measurement": "LysoTracker fluorescence (lysosomal volume)", "setting": "[2]", "value": "trend in reducing LysoTracker fluorescence"}, {"measurement": "onset of discernible indication of disease", "setting": "[3]; Npc1−/− mice treated from weaning, untreated show it from 5-6 weeks of age", "value": "did not display such symptoms until two or more weeks later"}, {"measurement": "coat condition", "setting": "[3]; Npc1−/− mice, 0.1 g/kg in chow from weaning, nine weeks of age", "value": "smooth and glossy coat"}, {"measurement": "gait", "setting": "[4]; Ex. 9, frontotemporal dementia with parkinsonism, 3 then 5 gram per day, approximately one month", "value": "significant improvement of gait"}, {"measurement": "speech", "setting": "[4]; Ex. 9, under therapy", "value": "improvement of speech"}, {"measurement": "falls", "setting": "[4]; Ex. 9, under therapy, before 2-3 falls per month", "value": "the patient's falls stopped"}, {"measurement": "symptoms", "setting": "[5]; Ex. 13 Patient 1, MSA-P, 3 g/day first week, 5 g/day thereafter, after 3 weeks", "value": "no significant improvement of gait, reduction of falls or improved hypokinetic rigid-syndrome"}, {"measurement": "symptoms", "setting": "[5]; Ex. 13 Patient 2, MSA-P, 3 then 5 g per day, after one month", "value": "subjective improvement of dizziness"}, {"measurement": "cognitive function", "setting": "[5]; Ex. 13 Patient 3, MSA-P, 3 then 5 g per day, after one month, reported by the patient's spouse", "value": "significant improvement of cognitive function"}, {"measurement": "gait function", "setting": "[5]; Ex. 13 Patient 3, MSA-P, after one month", "value": "no improvement of gait function"}, {"measurement": "speech", "setting": "[6]; Ex. 8 Patient 1, MSA-C, 5 g per day, after one week", "value": "significant improvement in speech"}, {"measurement": "gait", "setting": "[6]; Ex. 8 Patient 2, MSA-C, 3 then up to 5 gram per day, after 3 weeks", "value": "significant improvement of gait"}, {"measurement": "falls", "setting": "[6]; Ex. 8 Patient 2, MSA-C, after 3 weeks, before approximately 10 falls a month", "value": "the falls completely stopped"}, {"measurement": "symptoms after stopping medication", "setting": "[6]; Ex. 8 Patient 2, MSA-C, one week after stopping", "value": "deterioration of gait and dizziness"}, {"measurement": "ataxia symptoms", "setting": "[7]", "value": "symptomatic improvement of ataxia"}, {"measurement": "fine motor skills and speech compared to older siblings", "setting": "[8]", "value": "improved fine motor skills and improved speech"}, {"measurement": "GSL levels", "setting": "[9]", "value": "trend towards decreased GSL levels"}, {"measurement": "age up to which the ability to complete the bar crossing test was retained", "setting": "[10]; Sandhoff mice, 0.1 g/kg from 3 weeks of age, inclusive", "value": "up to 13 weeks of age"}, {"measurement": "motor function in bar-crossing test", "setting": "[10]; Sandhoff mouse, 0.1 g/kg body weight from 3 weeks of age", "value": "improved motor function and hind-limb mobility/engagement"}, {"measurement": "delay of weight loss symptoms", "setting": "Npc1^−/− mice", "value": "delayed these weight loss symptoms by two weeks"}, {"measurement": "lifespan", "setting": "[11]", "value": "statistically significant increase in the lifespan"}, {"measurement": "brain metabolism (PET)", "setting": "patients with ataxia", "value": "increased metabolism in the midbrain and lower brainstem in responders"}, {"measurement": "symptoms", "setting": "[12]; 5 g/day, three weeks on medication", "value": "all symptoms significantly improved"}, {"measurement": "side-effects", "setting": "[12]; over two years on the same dosage", "value": "without any side-effects"}, {"measurement": "signs and symptoms after stopping", "setting": "[12]; two weeks after the medication was stopped", "value": "the intensity of the signs and symptoms were the same as before therapy"}, {"measurement": "lifespan", "setting": "Npc1^−/− mouse", "value": "small but statistically significant increase in lifespan"}, {"measurement": "dizziness and falls", "setting": "[13]; Ex. 10, corticobasal syndrome, 3 then 5 g per day, after 20 days", "value": "improvement of dizziness symptoms and significant reduction in the frequency of falls"}, {"measurement": "symptoms after suspension", "setting": "[13]; Ex. 10, medication stopped after 8 weeks", "value": "increase of dizziness symptoms two days after suspension of treatment"}]}]}
